Starred links: 1 amine or outer side, 2 acyl side, 3 side chain; linkers in the order of their positions; H or OH if unused. Positions of bridges follow the written chain, without caps; N, C: chain ends. Non-standard residues stand in square brackets, D forms with d. Residues, ends and D or L forms follow the SMILES beside them. *: point of attachment. NMeF = CN[C@@H](Cc1ccccc1)C(=O)O; NMeI = CC[C@H](C)[C@H](NC)C(=O)O; NMeT = CN[C@H](C(=O)O)[C@@H](C)O; hPhe = N[C@@H](CCc1ccccc1)C(=O)O; NMeβAla = CN(CCC(=O)[*:2])[*:1]; NMeL = CN[C@@H](CC(C)C)C(=O)O; dNMeV = CN[C@@H](C(=O)O)C(C)C; NMeV = CN[C@H](C(=O)O)C(C)C; NMeAbu = CC[C@H](NC)C(=O)O; NMeA = CN[C@@H](C)C(=O)O; Piperidide = C1CCN(*)CC1; Abu = CC[C@H](N)C(=O)O; NBuGly = CCCCNCC(=O)O; Sar = CNCC(=O)O; tBu = CC(C)(C)*
Experiments:
[1] = Metabolic stability test: liver microsomal stability assay; format: in vitro ADME, mouse; details: mouse liver microsomes 0.5 mg protein/mL, compound 1 µM; for microsomal CLint at 1 µM: male, pH 7.4, presence of NADPH, read-out: Mouse Hepatic Microsome CLh,int NADPH(+); for Mouse Hepatic Microsome CLh,int NADPH(-): absence of NADPH
[2] = test system: Caco-2 cells; assay: Membrane permeability test using Caco-2 cells with preincubation; format: in vitro ADME; details: Caco-2 cells, preincubation 20 to 24 hours; apical FaSSIF/HBSS 1% DMSO pH 6.0, basal HBSS 4% BSA pH 7.4; basal sample at 180 minutes
[3] = as above; format: in vitro ADME; details: Caco-2; preincubation 20 to 24 hours; Apical FaSSIF/HBSS pH 6.0, Basal HBSS 4% BSA pH 7.4; 180 minutes; read-out: Caco2 Papp

Row | Structure (SMILES) | microsomal CLint at 1 µM [1] [µL/min/mg] | Mouse Hepatic Microsome CLh,int NADPH(-) [1] [µL/min/mg Protein] | Caco2 Papp (10^-6 cm/sec) [2] | Papp A→B [3] [×10⁻⁶ cm/s]
1 | CC(C)C[C@@H]1NC(=O)[C@H](CC(C)C)N(C)C(=O)[C@H](C(C)C)N(C)C(=O)[C@H](CCc2ccccc2)NC(=O)[C@H]([C@@H](C)O)N(C)C(=O)[C@@H](C(C)C)NC(=O)C[C@@H](C(=O)N2CCCCC2)NC(=O)[C@H](C(C)C)N(C)C(=O)[C@H](CC(C)C)NC(=O)[C@H](Cc2ccccc2)N(C)C(=O)[C@@H]2CCCN2C(=O)[C@H](C(C)C)NC(=O)[C@H](CC(C)C)N(C)C(=O)CN(C)C1=O [pd032] ([dV][NMeT][hPhe][NMeV][NMeL]L[Sar][NMeL]VP[NMeF]L[NMeV]D-Piperidide; lactam N-14) | 28.9 | 28.7 | 0.72 10^-6 cm/sec | 0.72
2 | CC[C@@H]1NC(=O)[C@H](C(C)C)N(C)C(=O)[C@H](CC(C)C)NC(=O)[C@H](Cc2ccccc2)N(C)C(=O)[C@@H](C(C)C)N(C)C(=O)C[C@@H](C(=O)N2CCCCC2)NC(=O)[C@H](CC(C)C)NC(=O)[C@H](C(C)C)N(C)C(=O)[C@H](Cc2ccccc2)N(C)C(=O)[C@H](CC(C)C)NC(=O)[C@H](CC(C)C)N(C)C(=O)[C@H](C)N(C)C(=O)[C@H]([C@@H](C)O)NC(=O)[C@H](CC(C)C)N(C)C1=O [pd033] ([dNMeV][NMeF]L[NMeV][Abu][NMeL]T[NMeA][NMeL]L[NMeF][NMeV]LD-Piperidide; lactam N-14) | 47.8 | 34.1 | 0.03 10^-6 cm/sec | 0.03
3 | CC[C@H](C)[C@H]1C(=O)N[C@@H](CC(C)C)C(=O)N(C)[C@@H](CC(C)C)C(=O)N2CCC[C@H]2C(=O)N(C)[C@@H](C(C)C)C(=O)N[C@H](C(=O)N2CCCCC2)CC(=O)N[C@@H](C)C(=O)N(C)[C@@H](CC(C)C)C(=O)N[C@@H](C(C)C)C(=O)N(C)[C@@H](Cc2ccccc2)C(=O)N(C)[C@@H](CC(C)C)C(=O)N[C@@H](C)C(=O)N(C)[C@@H](Cc2ccccc2)C(=O)N[C@@H]([C@@H](C)O)C(=O)N1C [pd036] (A[NMeL]V[NMeF][NMeL]A[NMeF]T[NMeI]L[NMeL]P[NMeV]D-Piperidide; lactam N-14) | 35.4 | 25.7 | 0.28 10^-6 cm/sec | 0.28
4 | CC[C@@H]1NC(=O)[C@H]([C@@H](C)O)N(C)C(=O)CCN(C)C(=O)[C@H]([C@@H](C)CC)NC(=O)[C@H](Cc2ccccc2)N(C)C(=O)CN(C)C(=O)C[C@@H](C(=O)N2CCCCC2)NC(=O)[C@H]([C@@H](C)CC)N(C)C(=O)[C@H](COC(C)(C)C)NC(=O)[C@@H]2CCCN2C(=O)[C@H](CCc2ccccc2)NC(=O)[C@H](CC)N(C)C(=O)[C@H](C)NC(=O)[C@H](CC(C)C)N(C)C1=O [pd038] ([Sar][NMeF]I[NMeβAla][NMeT][Abu][NMeL]A[NMeAbu][hPhe]PS(tBu)[NMeI]D-Piperidide; lactam N-14) | 12 | 18.1 | 0.04 10^-6 cm/sec | 0.04
5 | CC[C@H](C)[C@@H]1NC(=O)[C@H](CC(C)C)N(C)C(=O)CN(C)C(=O)C[C@@H](C(=O)N2CCCCC2)NC(=O)[C@H](C)N(C)C(=O)CNC(=O)[C@H](C(C)C)N(C)C(=O)[C@H](C)N(C)C(=O)[C@H](Cc2ccccc2)N(C)C(=O)[C@H](C(C)C)NC(=O)[C@H](CC(C)C)NC(=O)[C@H](Cc2ccccc2)N(C)C(=O)[C@H]([C@@H](C)O)NC(=O)[C@H](CC(C)C)N(C)C1=O [pd039] ([Sar][NMeL]I[NMeL]T[NMeF]LV[NMeF][NMeA][NMeV]G[NMeA]D-Piperidide; lactam N-14) | 21.4 | 15.6 | 0.03 10^-6 cm/sec | 0.03
6 | CC(C)C[C@@H]1NC(=O)[C@H]([C@@H](C)O)N(C)C(=O)[C@@H](C(C)C)NC(=O)C[C@@H](C(=O)N2CCCCC2)NC(=O)[C@H](C(C)C)N(C)C(=O)[C@H](C)N(C)C(=O)[C@H](C(C)C)NC(=O)[C@H](Cc2ccccc2)N(C)C(=O)[C@@H]2CCCN2C(=O)[C@H](CC(C)C)N(C)C(=O)CN(C)C(=O)[C@H](CCc2ccccc2)NC(=O)[C@H](CC(C)C)N(C)C(=O)[C@H](C(C)C)N(C)C1=O [pd040] ([dV][NMeT]L[NMeV][NMeL][hPhe][Sar][NMeL]P[NMeF]V[NMeA][NMeV]D-Piperidide; lactam N-14) | 24.8 | 22.3 | 0.17 10^-6 cm/sec | 0.17

More lines, now with the values ahead:

Row | microsomal CLint at 1 µM [1] [µL/min/mg] | Mouse Hepatic Microsome CLh,int NADPH(-) [1] [µL/min/mg Protein] | Caco2 Papp (10^-6 cm/sec) [2] | Papp A→B [3] [×10⁻⁶ cm/s] | Structure (SMILES)
7 | 37.2 | 22.1 | 0.03 10^-6 cm/sec | 0.03 | CC[C@@H]1NC(=O)[C@H]([C@@H](C)O)N(C)C(=O)[C@H](CC(C)C)N(C)C(=O)[C@H]([C@@H](C)CC)NC(=O)[C@H](Cc2ccccc2)N(C)C(=O)CN(C)C(=O)C[C@@H](C(=O)N2CCCCC2)NC(=O)[C@H](C(C)C)N(C)C(=O)[C@H](CC)NC(=O)[C@H](COC(C)(C)C)NC(=O)[C@H](C)N(C)C(=O)[C@H](CC)NC(=O)[C@H](CC(C)C)N(C)C(=O)[C@H](CCc2ccccc2)NC1=O [pd028] ([Sar][NMeF]I[NMeL][NMeT][Abu][hPhe][NMeL][Abu][NMeA]S(tBu)[Abu][NMeV]D-Piperidide; lactam N-14)
8 | 38.2 | 36.6 | 0.02 10^-6 cm/sec | 0.02 | CC[C@H](C)[C@@H]1NC(=O)[C@H](CC(C)C)N(C)C(=O)C[C@@H](C(=O)N2CCCCC2)NC(=O)[C@H](Cc2ccccc2)N(C)C(=O)[C@H](C(C)C)NC(=O)[C@@H]2CCCN2C(=O)[C@H]([C@@H](C)CC)NC(=O)[C@H](CC)N(C)C(=O)[C@H](C(C)C)N(C)C(=O)[C@H](CC(C)C)NC(=O)[C@H](CC(C)C)N(C)C(=O)[C@H]([C@@H](C)O)NC(=O)[C@H](Cc2ccccc2)NC(=O)CN(C)C1=O [pd029] ([NMeL]I[Sar]FT[NMeL]L[NMeV][NMeAbu]IPV[NMeF]D-Piperidide; lactam N-14)
9 | 33.7 | 28.5 | 0.04 10^-6 cm/sec | 0.04 | CC[C@@H]1NC(=O)[C@H](Cc2ccccc2)N(C)C(=O)[C@H](CC(C)C)NC(=O)CNC(=O)[C@H]([C@@H](C)O)N(C)C(=O)[C@H](CC(C)C)N(C)C(=O)[C@H]([C@@H](C)CC)NC(=O)[C@H](Cc2ccccc2)N(C)C(=O)CN(C)C(=O)C[C@@H](C(=O)N2CCCCC2)NC(=O)[C@H](C(C)C)N(C)C(=O)[C@H](CC(C)C)NC(=O)[C@H](C(C)C)NC(=O)[C@H](C)N(C)C1=O [pd030] ([Sar][NMeF]I[NMeL][NMeT]GL[NMeF][Abu][NMeA]VL[NMeV]D-Piperidide; lactam N-14)
10 | 40.3 | 32.3 | 0.04 10^-6 cm/sec | 0.04 | CC[C@@H]1NC(=O)[C@H](C(C)C)N(C)C(=O)[C@H](CC(C)C)NC(=O)[C@H](CC(C)C)N(C)C(=O)[C@H]([C@@H](C)O)NC(=O)CN(C)C(=O)[C@H]([C@@H](C)CC)NC(=O)[C@H](Cc2ccccc2)N(C)C(=O)[C@H](CC(C)C)N(C)C(=O)C[C@@H](C(=O)N2CCCCC2)NC(=O)[C@H](Cc2ccccc2)N(C)C(=O)[C@H](COC(C)(C)C)NC(=O)[C@@H]2CCCN2C(=O)[C@H]([C@@H](C)CC)NC1=O [pd031] ([NMeL][NMeF]I[Sar]T[NMeL]L[NMeV][Abu]IPS(tBu)[NMeF]D-Piperidide; lactam N-14)
11 | 46.8 | 36.0 | 0.27 10^-6 cm/sec | 0.27 | CC[C@H](C)[C@@H]1NC(=O)[C@H](C)N(C)C(=O)[C@H]([C@@H](C)O)NC(=O)[C@H](Cc2ccccc2)N(C)C(=O)[C@H](COC(C)(C)C)NC(=O)[C@H](CC(C)C)N(C)C(=O)[C@H](C(C)C)NC(=O)CN(C)C(=O)[C@H](Cc2ccccc2)N(C)C(=O)[C@H]([C@@H](C)CC)NC(=O)[C@H](CC(C)C)N(C)C(=O)CCN(C)C(=O)C[C@@H](C(=O)N2CCCCC2)NC(=O)[C@H](CC(C)C)N(C)C1=O [pd034] ([NMeβAla][NMeL]I[NMeF][Sar]V[NMeL]S(tBu)[NMeF]T[NMeA]I[NMeL]D-Piperidide; lactam N-14)
12 | 28.3 | 27.5 | <0.11 10^-6 cm/sec | < 0.11 | CCCCN1CC(=O)N[C@@H](CC(C)C)C(=O)N(C)[C@@H]([C@@H](C)CC)C(=O)N[C@@H](CC)C(=O)N(C)[C@@H]([C@@H](C)O)C(=O)N(C)[C@@H](Cc2ccccc2)C(=O)N[C@@H]([C@@H](C)CC)C(=O)N(C)[C@@H](CC(C)C)C(=O)N[C@H](C(=O)N2CCCCC2)CC(=O)N(C)[C@@H](C)C(=O)N[C@@H](CC(C)C)C(=O)N(C)[C@@H](CC(C)C)C(=O)N(C)[C@@H](Cc2ccccc2)C(=O)N[C@@H](CC)C1=O [pd035] ([NMeA]L[NMeL][NMeF][Abu][NBuGly]L[NMeI][Abu][NMeT][NMeF]I[NMeL]D-Piperidide; lactam N-14)
13 | 18.3 | 17.7 | 0.26 10^-6 cm/sec | 0.26 | CC[C@H](C)[C@H]1C(=O)N[C@@H]([C@@H](C)O)C(=O)N(C)CC(=O)N(C)[C@@H](CC(C)C)C(=O)N[C@@H](CC(C)C)C(=O)N[C@H](C(=O)N2CCCCC2)CC(=O)N(C)[C@@H](C)C(=O)N[C@@H](CC(C)C)C(=O)N(C)[C@@H](CC(C)C)C(=O)N[C@@H](C(C)C)C(=O)N(C)CCC(=O)N(C)[C@@H](Cc2ccccc2)C(=O)N[C@@H](C)C(=O)N(C)[C@@H](Cc2ccccc2)C(=O)N1C [pd037] ([NMeA]L[NMeL]V[NMeβAla][NMeF]A[NMeF][NMeI]T[Sar][NMeL]LD-Piperidide; lactam N-14)

— patent EP4768499A1, “MACROCYCLIC PEPTIDE COMPOUND HAVING CELL MEMBRANE PERMEABILITY AND METABOLIC STABILITY, AND LIBRARY CONTAINING SAME” (Chugai Seiyaku Kabushiki Kaisha, priority 2023, dated 2025)
